For three compounds, IC50 results are on record in ChEMBL document CHEMBL3763075, “Evaluation of phenylcyclopropylamine compounds by enzymatic assay of lysine-specific demethylase 2 in the presence of NPAC peptide” (Bioorg Med Chem Lett, 2016).

A word on the IC50: it is the midpoint of a concentration-inhibition curve. Low readings indicate greater potency, high ones weaker potency.

In this assay the target is T1, Lysine-specific histone demethylase 2 (Homo sapiens, UniProt Q8NB78).
T1 sequence (Q8NB78 whole entry): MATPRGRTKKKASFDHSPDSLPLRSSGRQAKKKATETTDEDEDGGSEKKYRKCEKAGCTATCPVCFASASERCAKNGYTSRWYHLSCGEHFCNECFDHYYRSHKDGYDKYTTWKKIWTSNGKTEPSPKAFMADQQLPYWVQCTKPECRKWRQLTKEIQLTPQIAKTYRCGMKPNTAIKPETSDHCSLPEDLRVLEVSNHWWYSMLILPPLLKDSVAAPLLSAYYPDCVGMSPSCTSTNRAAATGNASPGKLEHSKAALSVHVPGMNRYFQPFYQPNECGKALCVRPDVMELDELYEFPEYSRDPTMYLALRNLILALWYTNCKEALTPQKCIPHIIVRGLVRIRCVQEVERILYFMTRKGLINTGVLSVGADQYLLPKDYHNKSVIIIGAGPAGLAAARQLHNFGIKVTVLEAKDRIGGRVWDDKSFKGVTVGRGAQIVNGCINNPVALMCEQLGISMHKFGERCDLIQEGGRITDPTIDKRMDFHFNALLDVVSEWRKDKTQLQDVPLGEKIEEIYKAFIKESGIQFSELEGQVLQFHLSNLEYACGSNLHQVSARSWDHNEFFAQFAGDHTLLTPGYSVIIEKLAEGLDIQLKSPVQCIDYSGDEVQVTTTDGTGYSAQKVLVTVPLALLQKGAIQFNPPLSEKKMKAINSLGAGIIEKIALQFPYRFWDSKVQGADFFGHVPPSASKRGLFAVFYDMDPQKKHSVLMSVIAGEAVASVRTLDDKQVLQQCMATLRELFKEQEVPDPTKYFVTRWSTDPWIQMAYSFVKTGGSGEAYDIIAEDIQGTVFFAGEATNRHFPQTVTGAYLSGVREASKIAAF
Description: Inhibition of recombinant human LSD2 using H3K4 peptide as substrate assessed as decrease in H3K4 demethylation after 1 hr by mass spectroscopic analysis
With `O=C(N[C@@H](CCCCNC1CC1c1ccccc1)C(=O)NCc1cccc(C(F)(F)F)c1)c1ccc(-c2ccccc2)cc1` (stereo partly drawn), the IC50 was more than 540 µM. For `O=C(N[C@@H](CCCCNC1CC1c1ccccc1)C(=O)NCc1ccccc1)c1ccc(-c2ccccc2)cc1` (stereo partly drawn) the value was 230 µM; for `O=C(N[C@@H](CCCCNC1CC1c1ccccc1)C(=O)NCc1ccc(Cl)cc1)c1ccc(-c2ccccc2)cc1` (stereo partly drawn), 250 µM.
